Read-outs that look alike come from different tables or passages of the source.
What was measured:
[1] = mouse, in vivo, ip
Procedure: 5-hydroxymethyl-2′-deoxycytidine and 5-formyl-2′-deoxycytidine (Berry and Associates), were formulated in dimethyl sulfoxide (DMSO)/Solutol (RTM) R HS15/phosphate buffered saline (PBS) (5/5/90, v/v/v) at the concentration of 30 and 200 and 400 mg/mL for IP administration at the dosing volume of […]. A dosing volume at 10 or 20 ml/kg was applied.
Male ICR mice weighing 23±3 g were provided by BioLasco Taiwan (under Charles River Laboratories Licensee). […] All animals were maintained in a hygienic environment with controlled temperature (20-24° C.), humidity (30%-70%) and 12 hours light/dark cycles. Free access to sterilized standard lab diet [MFG (Oriental Yeast Co., Ltd., Japan)] and autoclaved tap water were granted.
5-hydroxymethyl-2′-deoxycytidine and 5-formyl-2′-deoxycytidine were administered IP to groups of three male ICR mice weighing 23±3 g. Animals received an initial dose of 300 mg/kg. If the animals survived for 72 hours, the dose for the next cohort was increased. If one or more animals died, the dose for the next cohort was decreased. The testing stopped when all animals survived at the upper bound, or when three dose levels had been tested or when the upper or lower bound had been reached. […] Body weights were recorded pre-dose and at 72 hours. […] Gross necropsy was performed on all animals without tissue collection, and the next dose level was determined based on the study design table.
The maximum tolerated dose (MTD) of these compounds in mice was determined as described above (Materials and Methods). […] While the end-point of the study was survival after 72 hours, the presence of acute toxic symptoms (mortality, convulsions, tremors, muscle relaxation, sedation, etc.) and autonomic effects (diarrhea, salivation, lacrimation, vasodilation, piloerection, etc.) in the animals was monitored during the first 30 minutes, and again at 1, 24, 48 and 72 hours. Body weights were recorded pre-dose and at 72 hours.

[2] = system: H1573 cells; assay: Survival assay (MTT), H1573; type: cell-based; details: Homo sapiens, NCI-H1573
Procedure: (§1) Cells were passed between 70 and 90% confluence.
(§2) Cells were incubated with the drugs for 72 hours.

[3] = Multiple MTD, repeated dose; type: in vivo; details: mice, IP 300, 1000, 2000 mg/kg every three days, 5 doses
Procedure: The test compounds were dosed every three days for a total of 5 doses (q3dx5).
In addition, body weights were recorded before each treatment and at 24, 48 and 72 hours after the final administration.
Mice were injected with the indicated compound at the indicated dose intraperitoneally once every three days for a total of 5 doses.

[4] = system: H1437 cells; assay: Survival assay (MTT), H1437; type: cell-based; details: Homo sapiens, NCI-H1437
Procedure: as §1, §2

[5] = system: V79 cells; assay: Survival assay (MTT), V79; type: cell-based; details: Cricetulus griseus, V79, Chinese Hamster Lung, 72 hours
Procedure: as §1, §2

[6] = system: glioblastoma multiforme; details: glioblastoma multiforme patients; cited from earlier work

SMILES | tolerability of a single dose ([1]; 300 mg/kg) | tolerability of a single dose ([1]; 2000 mg/kg) | tolerability of a single dose ([1]; 8000 mg/kg) | IC50 ([2]; H1573, Lung (metastatic adenocarcinoma), 72 hours, MTT) [µM] | IC50 ([2]; H1573, Tables 6 and 7, unit inferred) [µM] | body weight compared with untreated animals [3] | IC50 ([4]; H1437, Lung (metastatic non-small cell adenocarcinoma), 72 hours, MTT) [µM] | IC50 ([4]; H1437, Tables 6 and 7, unit inferred) [µM] | IC50 [5] [µM] | improvement of overall survival [6] [months]
Nc1nc(=O)n([C@H]2C[C@H](O)[C@@H](CO)O2)cc1C=O [2d5fC, 5-formyl-2′-deoxycytidine] | can tolerate | can tolerate | unable to tolerate | 7.72 | 7.72 | not statistically different | 5.65 | 5.65 | > 25 | 
Nc1nc(=O)n([C@H]2C[C@H](O)[C@@H](CO)O2)cc1CO [2d5hmC, 5-hydroxymethyl-2′-deoxycytidine] | can tolerate | can tolerate | unable to tolerate |  |  | not statistically different |  |  | > 25 | 
Cn1nnc2c(C(N)=O)ncn2c1=O [Temozolomide, 4-methyl-5-oxo-2,3,4,6,8-pentazabicyclo[4.3.0]nona-2,7,9-triene-9-carboxamide, reference compound] |  |  |  |  |  |  |  |  |  | 2.5

Reference: patent publication US12605397B2, “Deoxy-cytidine or uridine derivatives for use in cancer therapies” (HEMISPHERIAN AS, priority 2019, dated 2026)
